# Values of other authors as cited in patent US12436146B2, “Cell-based assay for quantifying the potency and efficacy of cannabinoids and/or terpenoids, and methods of use thereof” (priority 2017, dated 2025).
# Key:
# CB1 [1] = biological target: T1, CB1 (Homo sapiens, UniProt P21554)
# CB2 [2] = biological target: T2, CB2 (Homo sapiens, UniProt P34972); details: read-out: CB2 affinity (Ki)
# CB2 [3] = biological target: T2, CB2
# CB1 [4] = biological target: T1, CB1; details: read-out: CB1 affinity (Ki)
# T1 sequence (P21554 whole entry): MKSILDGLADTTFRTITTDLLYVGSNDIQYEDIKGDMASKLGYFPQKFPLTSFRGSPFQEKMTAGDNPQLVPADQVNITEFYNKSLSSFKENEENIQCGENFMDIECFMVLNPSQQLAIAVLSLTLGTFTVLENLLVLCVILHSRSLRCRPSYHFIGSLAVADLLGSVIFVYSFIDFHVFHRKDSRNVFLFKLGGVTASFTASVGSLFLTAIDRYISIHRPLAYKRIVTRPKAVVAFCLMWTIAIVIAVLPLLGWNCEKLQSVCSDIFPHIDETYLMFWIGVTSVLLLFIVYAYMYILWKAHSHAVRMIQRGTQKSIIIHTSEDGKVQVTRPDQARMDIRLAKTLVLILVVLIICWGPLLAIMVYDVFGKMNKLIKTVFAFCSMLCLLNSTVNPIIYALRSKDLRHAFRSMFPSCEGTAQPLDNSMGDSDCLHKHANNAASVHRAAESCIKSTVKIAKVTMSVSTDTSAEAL
# T2 sequence (P34972 whole entry): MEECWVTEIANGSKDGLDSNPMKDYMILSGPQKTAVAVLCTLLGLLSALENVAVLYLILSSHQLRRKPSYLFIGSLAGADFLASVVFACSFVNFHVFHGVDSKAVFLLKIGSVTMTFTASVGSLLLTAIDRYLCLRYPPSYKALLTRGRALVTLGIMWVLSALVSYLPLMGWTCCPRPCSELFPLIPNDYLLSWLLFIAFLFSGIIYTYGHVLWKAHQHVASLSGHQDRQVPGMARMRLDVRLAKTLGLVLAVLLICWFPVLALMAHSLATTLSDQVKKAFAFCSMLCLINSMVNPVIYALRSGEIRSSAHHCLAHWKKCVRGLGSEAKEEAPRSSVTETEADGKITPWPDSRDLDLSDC
SMILES,Efficacy towards CB1 (CB1 [1]),Ki (CB2 [2]),Efficacy towards CB2 (CB2 [3]),Ki (CB1 [4])
CCCCCn1cc(C(=O)c2cccc3ccccc23)c2ccccc21 [JWH-018],Full agonist,2.94 ± 2.65 nM,Full agonist,9 ± 5 nM
COc1ccc(/C=C/c2cc(OC)cc(=O)o2)cc1 [Yangonin],–,> 10000 nM,–,–
Cc1c(C(=O)c2cccc3ccccc23)c2ccc([N+](=O)[O-])cc2n1CC1CCCCN1C (stereo not shown) [AM-1221],Agonist,0.28 nM,Agonist,52.3 nM
CCCCC/C=C\C/C=C\C/C=C\C/C=C\CCCC(=O)OC(CO)CO [2-Arachidonoylglycerol],Full agonist,–,–,–
O=C(O[C@@H]1Cc2c(O)cc(O)cc2O[C@@H]1c1cc(O)c(O)c(O)c1)c1cc(O)c(O)c(O)c1 [EGCG],Agonist,> 50000 nM,–,33600 nM
N#CCCCCn1cc(C(=O)c2cccc3ccccc23)c2ccccc21 [AM-2232],Agonist,1.48 nM,Agonist,0.28 nM
CCCCCn1c(C)c(C(=O)c2cccc3ccccc23)c2ccccc21 [JWH-007],Agonist,2.94 nM,Agonist,9 nM
CCCCC/C=C\C/C=C\C/C=C\C/C=C\CCCC(=O)NCCc1ccc(O)c(O)c1 [N-Arachidonoyl dopamine],Agonist,–,–,–
CCCCCn1cc(C(=O)C2C(C)(C)C2(C)C)c2ccccc21 [UR-144],Full agonist,1.8 nM,Full agonist,150 nM
O=C(c1cccc2ccccc12)c1cn(CCCCCF)c2cc([N+](=O)[O-])ccc12 [AM-1235],Agonist,20.4 nM,Agonist,1.5 nM
CCCCC/C=C\C/C=C\C/C=C\C/C=C\CCCCOC(CO)CO [2-Arachidonyl glyceryl ether],Full agonist,480 nM,Full agonist,21 nM
